According to the supplement of paper PMC10307832:

How the values were obtained:
Assay in all cases: relative viability (nuclei count vs DMSO), 5 days (fraction); higher = more cells survive
[1] = compound: C1COCCN1C2=NC(=NC3=C2OC4=C3C=CC=N4)C5=CC(=CC=C5)NC(=O)C6=CN=C(C=C6)N + COc1cc2c(Oc3ccc(NC(=O)C4(C(=O)Nc5ccc(F)cc5)CC4)cc3F)ccnc2cc1OCCCN1CCOCC1 [Foretinib] (partner 0.25 µM)
How it was run: (§1)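 Relative viability divides the nuclei count in treated wells by that in vehicle wells. Lung cancer cell lines were seeded in 1536-well plates, dosed by pin tool the next day, and fixed and stained after 5 days in one step with final 0.05% Triton X-100, 1% formaldehyde and 1 ug/ml Hoechst. Dosing was a single drug or a fixed anchor-drug dose plus five library-drug doses (not always all listed) in √10 steps, and values are medians of duplicate plates imaged at 4×.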

[2] = compound: Nc1ccccc1NC(=O)c1ccc(CNC(=O)OCc2cccnc2)cc1 [Entinostat] + Cc1cc(Nc2cc(N3CCN(C)CC3)nc(Sc3ccc(NC(=O)C4CC4)cc3)n2)n[nH]1 [Tozasertib] (partner 0.1 µM)
How it was run: as §1

[3] = compound: CN1CCC(CNc2ccc3ncc(-c4cccc(OC(F)(F)F)c4)n3n2)CC1 [SGI-1776] + Nc1nc2[nH]cc(CCc3ccc(C(=O)N[C@@H](CCC(=O)O)C(=O)O)cc3)c2c(=O)[nH]1 [Pemetrexed] (partner 0.2 µM)
How it was run: as §1

[4] = compound: Nc1ccccc1NC(=O)c1ccc(CNC(=O)OCc2cccnc2)cc1 [Entinostat] + Nc1ncn([C@H]2C[C@H](O)[C@@H](CO)O2)c(=O)n1 [Decitabine] (partner 2 µM)
How it was run: as §1

Row | Cell Line | relative viability ([1]; first compound 0.02 µM) | relative viability ([1]; first compound 0.06325 µM) | relative viability ([1]; first compound 0.2 µM) | relative viability ([1]; first compound 0.6325 µM) | relative viability ([1]; first compound 2 µM) | relative viability ([2]; first compound 0.02 µM) | relative viability ([2]; first compound 0.06325 µM) | relative viability ([2]; first compound 0.2 µM) | relative viability ([2]; first compound 0.6325 µM) | relative viability ([2]; first compound 2 µM) | relative viability ([3]; first compound 0.08 µM) | relative viability ([3]; first compound 0.8 µM) | relative viability ([3]; first compound 2.53 µM) | relative viability ([3]; first compound 8 µM) | relative viability ([4]; first compound 0.02 µM) | relative viability ([4]; first compound 0.06325 µM) | relative viability ([4]; first compound 0.2 µM) | relative viability ([4]; first compound 0.6325 µM) | relative viability ([4]; first compound 2 µM)
1 | NCI-H650 | 1 | 1.01 | 1.06 | 1.03 | 0.919 | 0.739 | 0.652 | 0.555 | 0.482 | 0.212 | 1.02 | 0.91 | 0.949 | 0.841 | 0.312 | 0.336 | 0.252 | 0.278 | 0.226
2 | NCI-H1993 | 0.879 | 0.837 | 0.732 | 0.723 | 0.665 | 0.615 | 0.605 | 0.519 | 0.542 | 0.487 | 0.61 | 0.569 | 0.559 | 0.548 | 0.537 | 0.54 | 0.559 | 0.645 | 0.466
3 | NCI-H358 |  | 0.721 | 0.537 | 0.68 | 0.477 | 0.0897 | 0.0965 | 0.0816 | 0.0915 | 0.0853 | 0.177 | 0.218 | 0.168 | 0.161 | 0.188 | 0.201 | 0.173 | 0.153 | 0.137
4 | RERF-LC-KJ | 0.879 | 0.953 | 0.888 | 0.883 | 0.624 | 0.417 | 0.4 | 0.349 | 0.215 | 0.198 | 0.46 | 0.477 | 0.461 | 0.412 | 0.712 | 0.685 | 0.663 | 0.369 | 0.285
5 | NCI-H1915 | 1.11 | 1.18 | 1.11 | 1.13 | 0.856 | 0.446 | 0.385 | 0.338 | 0.267 | 0.212 | 0.481 | 0.463 | 0.497 | 0.47 | 0.276 | 0.246 | 0.258 | 0.229 | 0.197
